In the test the test system is T1, extracellular laccase (laccI) of A. pediades.
T1 construct: native, partially purified from culture filtrate (Sephacryl 200), glycosylated monomer, 72 kDa native, 55-60 kDa denatured
Briefly: spectrophotometric oxidation at […] nm, Michaelis-Menten nonlinear fit. As to conditions: pH 5.0; 0-2 mM substrate; air oxygen as co-substrate; read-out: apparent Km. The test is classed as biochemical, Agrocybe pediades.

Turning to `COc1cccc(OC)c1O` [2,6-DMP, 2,6-dimethoxyphenol], the Km stood at 100 µM.

In general, Km refers to the concentration of substrate that gives half-maximal velocity.
